Counter-ions that a name gives are not always drawn.
Tests used:
[1] = tested on: ENR+CD organoids (ISC to Paneth cell differentiation); experiment: Primary screen: basal (non-stimulated) lysozyme secretion LYZ.NS, 2.5-D 384-well ENR+CD organoid differentiation; assay type: cell-based, mouse
Description: (§1) High-throughput screening.

ENR+CD organoids = experiment: Primary screen: ATP (CellTiter-Glo 3D, CTG) cell number/viability, 2.5-D 384-well ENR+CD organoids;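 also: compounds given at plating and again on day 3 over a 6-day differentiation from ENR+CV stem-cell-enriched precursors, ATP measured on day 6, plate median as control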
[2] = tested on: ENR+CD organoids (ISC to Paneth cell differentiation); experiment: Primary screen: CCh-stimulated lysozyme secretion LYZ.S, 2.5-D 384-well ENR+CD organoid differentiation; assay type: cell-based, mouse; details: primary screen
Description: as §1

[3] = primary screen, dose 0.08 uM, FC relative to plate median
[4] = primary screen, dose 0.08 uM, standard z score
[5] = primary screen, dose 0.40 uM, FC relative to plate median
[6] = primary screen, dose 0.40 uM, standard z score
[7] = primary screen, dose 2.00 uM, FC relative to plate median
[8] = primary screen, dose 2.00 uM, standard z score
[9] = primary screen, dose 10.00 uM, FC relative to plate median
[10] = primary screen, dose 10.00 uM, standard z score
[11] = primary screen, standard z score, dose 0.08 uM
[12] = primary screen, standard z score, dose 0.40 uM
[13] = primary screen, standard z score, dose 2.00 uM
[14] = primary screen, standard z score, dose 10.00 uM
[15] = primary screen; dose 0.08 uM; FC vs plate median
[16] = primary screen; dose 0.40 uM; FC vs plate median
[17] = primary screen; dose 2.00 uM; FC vs plate median
[18] = primary screen; dose 10.00 uM; FC vs plate median

| Structure (SMILES) | Z.LYZ.NS (standard z score) ([1]; primary screen, dose 0.08 uM) | Z.LYZ.NS (standard z score) ([1]; primary screen, dose 0.40 uM) | Z.LYZ.NS (standard z score) ([1]; primary screen, dose 2.00 uM) | Z.LYZ.NS (standard z score) ([1]; primary screen, dose 10.00 uM) | Dose.FC.LYZ.NS ([1]; primary screen, dose 0.08 uM) [log2 fold change] | Dose.FC.LYZ.NS ([1]; primary screen, dose 0.40 uM) [log2 fold change] | Dose.FC.LYZ.NS ([1]; primary screen, dose 2.00 uM) [log2 fold change] | Dose.FC.LYZ.NS ([1]; primary screen, dose 10.00 uM) [log2 fold change] | Dose.FC.CTG (ENR+CD organoids; primary screen, dose 0.08 uM) [log2 fold change] | Z.CTG (standard z score) (ENR+CD organoids; primary screen, dose 0.08 uM) | Dose.FC.CTG (ENR+CD organoids; primary screen, dose 0.40 uM) [log2 fold change] | Z.CTG (standard z score) (ENR+CD organoids; primary screen, dose 0.40 uM) | Dose.FC.CTG (ENR+CD organoids; primary screen, dose 2.00 uM) [log2 fold change] | Z.CTG (standard z score) (ENR+CD organoids; primary screen, dose 2.00 uM) | Dose.FC.CTG (ENR+CD organoids; primary screen, dose 10.00 uM) [log2 fold change] | Z.CTG (standard z score) (ENR+CD organoids; primary screen, dose 10.00 uM) | Dose.FC.LYZ.S ([2]; dose 0.08 uM) [log2 fold change] | Dose.FC.LYZ.S ([2]; dose 0.40 uM) [log2 fold change] | Dose.FC.LYZ.S ([2]; dose 2.00 uM) [log2 fold change] | Dose.FC.LYZ.S ([2]; dose 10.00 uM) [log2 fold change] | further results |
| --- | --- | --- | --- | --- | --- | --- | --- | --- | --- | --- | --- | --- | --- | --- | --- | --- | --- | --- | --- | --- | --- |
| CCOC(=O)[C@H](CCc1ccccc1)N[C@@H](C)C(=O)N1C(=O)N(C)C[C@H]1C(=O)O [Imidapril HCl] | −0.049 | 0.004 | 0.121 | −0.706 |  |  |  |  |  |  |  |  |  |  |  |  |  |  |  |  | Dose.FC.LYZ.NS (log2 fold change) ([1]; primary screen, dose 0.08 uM): −0.006; Dose.FC.LYZ.NS (log2 fold change) ([1]; primary screen, dose 0.40 uM): 0.000; Dose.FC.LYZ.NS (log2 fold change) ([1]; primary screen, dose 2.00 uM): 0.014; Dose.FC.LYZ.NS (log2 fold change) ([1]; primary screen, dose 10.00 uM): −0.081; Dose.FC.CTG (log2 fold change) (ENR+CD organoids; primary screen, dose 0.08 uM): −0.333; Dose.FC.CTG (log2 fold change) (ENR+CD organoids; primary screen, dose 0.40 uM): −0.148; Dose.FC.CTG (log2 fold change) (ENR+CD organoids; primary screen, dose 2.00 uM): −0.236; Dose.FC.CTG (log2 fold change) (ENR+CD organoids; primary screen, dose 10.00 uM): −0.227; Dose.FC.LYZ.S (log2 fold change) ([2]; dose 0.08 uM): −0.042; Dose.FC.LYZ.S (log2 fold change) ([2]; dose 0.40 uM): 0.109; Dose.FC.LYZ.S (log2 fold change) ([2]; dose 2.00 uM): −0.035; Dose.FC.LYZ.S (log2 fold change) ([2]; dose 10.00 uM): −0.075 |
| O=S(=O)(c1ccccc1)c1cnc2c(N3CCNCC3)cccc2c1 [SB742457] |  |  |  |  |  |  |  |  |  |  |  |  |  |  |  |  |  |  |  |  | Dose.FC.LYZ.NS [1, 3]: 0.012 log2 fold change; Z.LYZ.NS [1, 4]: 0.108; Dose.FC.LYZ.NS [1, 5]: −0.062 log2 fold change; Z.LYZ.NS [1, 6]: −0.537; Dose.FC.LYZ.NS [1, 7]: 0.069 log2 fold change; Z.LYZ.NS [1, 8]: 0.598; Dose.FC.LYZ.NS [1, 9]: 0.013 log2 fold change; Z.LYZ.NS [1, 10]: 0.115; Dose.FC.CTG (ENR+CD organoids; [3]): −0.290 log2 fold change; Z.CTG (ENR+CD organoids; [4]): −0.693; Dose.FC.CTG (ENR+CD organoids; [5]): −0.126 log2 fold change; Z.CTG (ENR+CD organoids; [6]): −0.300; Dose.FC.CTG (ENR+CD organoids; [7]): −0.177 log2 fold change; Z.CTG (ENR+CD organoids; [8]): −0.423; Dose.FC.CTG (ENR+CD organoids; [9]): −0.294 log2 fold change; Z.CTG (ENR+CD organoids; [10]): −0.702; Dose.FC.LYZ.S ([2]; dose 0.08 uM, FC relative to plate median): −0.055 log2 fold change; Dose.FC.LYZ.S ([2]; dose 0.40 uM, FC relative to plate median): −0.029 log2 fold change; Dose.FC.LYZ.S ([2]; dose 2.00 uM, FC relative to plate median): −0.003 log2 fold change; Dose.FC.LYZ.S ([2]; dose 10.00 uM, FC relative to plate median): −0.006 log2 fold change |
| COc1ccc2c(c1)c(CC(=O)N1CCOCC1)c(C)n2C(=O)c1ccc(Cl)cc1 [BML-190] | 0.623 | −0.152 | 1.011 | 1.823 | 0.072 | −0.017 | 0.116 | 0.209 | −0.003 | −0.007 | −0.099 | −0.237 | −0.106 | −0.254 | −0.106 | −0.254 | 0.060 | −0.037 | 0.017 | 0.067 |  |
| C[C@H](NC(=O)[C@@H](O)c1cc(F)cc(F)c1)C(=O)N[C@@H]1C(=O)N(C)c2ccccc2-c2ccccc21 [LY411575] | 0.347 | −0.434 | −0.598 | −0.949 |  |  |  |  |  | 0.083 |  | −0.411 |  | −0.412 |  | −0.618 |  |  |  |  | Dose.FC.LYZ.NS (log2 fold change) ([1]; primary screen, dose 0.08 uM): 0.040; Dose.FC.LYZ.NS (log2 fold change) ([1]; primary screen, dose 0.40 uM): −0.050; Dose.FC.LYZ.NS (log2 fold change) ([1]; primary screen, dose 2.00 uM): −0.069; Dose.FC.LYZ.NS (log2 fold change) ([1]; primary screen, dose 10.00 uM): −0.109; Dose.FC.CTG (log2 fold change) (ENR+CD organoids; primary screen, dose 0.08 uM): 0.035; Dose.FC.CTG (log2 fold change) (ENR+CD organoids; primary screen, dose 0.40 uM): −0.172; Dose.FC.CTG (log2 fold change) (ENR+CD organoids; primary screen, dose 2.00 uM): −0.172; Dose.FC.CTG (log2 fold change) (ENR+CD organoids; primary screen, dose 10.00 uM): −0.259; Dose.FC.LYZ.S (log2 fold change) ([2]; dose 0.08 uM): 0.024; Dose.FC.LYZ.S (log2 fold change) ([2]; dose 0.40 uM): 0.041; Dose.FC.LYZ.S (log2 fold change) ([2]; dose 2.00 uM): −0.091; Dose.FC.LYZ.S (log2 fold change) ([2]; dose 10.00 uM): −0.157 |
| COc1cc(Nc2ncc(F)c(Nc3ccc4c(n3)N(COP(=O)(O)O)C(=O)C(C)(C)O4)n2)cc(OC)c1OC [Fostamatinib (R788)] |  |  |  |  | 0.119 | −0.025 | −0.099 | −0.234 | 0.232 |  | −0.052 |  | −0.231 |  | −0.881 |  | 0.235 | 0.156 | −0.015 | −0.350 | Z.LYZ.NS [1, 11]: 1.033; Z.LYZ.NS [1, 12]: −0.217; Z.LYZ.NS [1, 13]: −0.860; Z.LYZ.NS [1, 14]: −2.036; Z.CTG (ENR+CD organoids; [11]): 0.554; Z.CTG (ENR+CD organoids; [12]): −0.123; Z.CTG (ENR+CD organoids; [13]): −0.552; Z.CTG (ENR+CD organoids; [14]): −2.105 |
| COC1CCN(C(=O)c2cc(Cc3n[nH]c(=O)c4ccccc34)ccc2F)CC1 [AZD2461] | 0.334 | −0.327 | −0.641 | −1.497 | 0.038 | −0.038 | −0.074 | −0.172 | 0.073 | 0.174 | −0.040 | −0.095 | −0.232 | −0.555 | −0.336 | −0.803 | 0.097 | 0.015 | −0.100 | −0.224 |  |
| CC(/C=C/C(=O)NO)=C\[C@@H](C)C(=O)c1ccc(N(C)C)cc1 [Trichostatin A (TSA)] | −0.554 | −1.697 | −1.334 | −1.298 | −0.064 | −0.195 | −0.153 | −0.149 | 0.191 | 0.457 | −0.801 | −1.913 | −0.904 | −2.159 | −0.826 | −1.974 | −0.124 | −0.254 | −0.210 | −0.202 |  |
| Cc1[nH]c2ccccc2c1CCNCc1ccc(/C=C/C(=O)NO)cc1 [Panobinostat (LBH589)] |  |  |  |  |  |  |  |  |  |  |  |  |  |  |  |  |  |  |  |  | Z.LYZ.NS [1, 4]: 0.014; Z.LYZ.NS [1, 6]: −0.232; Z.LYZ.NS [1, 8]: −1.329; Z.LYZ.NS [1, 10]: −1.891; Dose.FC.LYZ.NS [1, 15]: 0.002 log2 fold change; Dose.FC.LYZ.NS [1, 16]: −0.027 log2 fold change; Dose.FC.LYZ.NS [1, 17]: −0.153 log2 fold change; Dose.FC.LYZ.NS [1, 18]: −0.217 log2 fold change; Z.CTG (ENR+CD organoids; [4]): 0.706; Z.CTG (ENR+CD organoids; [6]): 0.506; Z.CTG (ENR+CD organoids; [8]): −1.283; Z.CTG (ENR+CD organoids; [10]): −2.395; Dose.FC.CTG (ENR+CD organoids; [15]): 0.295 log2 fold change; Dose.FC.CTG (ENR+CD organoids; [16]): 0.212 log2 fold change; Dose.FC.CTG (ENR+CD organoids; [17]): −0.537 log2 fold change; Dose.FC.CTG (ENR+CD organoids; [18]): −1.003 log2 fold change; Dose.FC.LYZ.S ([2]; dose 0.08 uM, FC vs plate median): −0.034 log2 fold change; Dose.FC.LYZ.S ([2]; dose 0.40 uM, FC vs plate median): −0.042 log2 fold change; Dose.FC.LYZ.S ([2]; dose 2.00 uM, FC vs plate median): −0.285 log2 fold change; Dose.FC.LYZ.S ([2]; dose 10.00 uM, FC vs plate median): −0.320 log2 fold change |
| CCN(CC)C(=O)/C(C#N)=C/c1cc(O)c(O)c([N+](=O)[O-])c1 [Entacapone] |  |  |  |  | 0.136 | 0.012 | 0.085 | 0.100 | −0.115 |  | −0.065 |  | 0.206 |  | −0.391 |  | 0.020 | 0.024 | 0.072 | 0.027 | Z.LYZ.NS [1, 11]: 1.183; Z.LYZ.NS [1, 12]: 0.102; Z.LYZ.NS [1, 13]: 0.744; Z.LYZ.NS [1, 14]: 0.870 |
| CC(C)OC(=O)OCOP(=O)(CO[C@H](C)Cn1cnc2c(N)ncnc21)OCOC(=O)OC(C)C [Tenofovir Disoproxil Fumarate] | 0.475 | −0.442 | −0.689 | −1.614 | 0.055 | −0.051 | −0.079 | −0.185 | 0.072 |  | −0.002 |  | −0.158 |  | −0.433 |  | 0.208 | 0.086 | −0.065 | −0.267 |  |
